From patent publication US20250179103A1, “6-OXODECAHYDROPYRROLO[1,2-A][1,5]DIAZOCINE AND 6-OXODECAHYDRO-4H-PYRROLO[2,1-D][1,5]THIAZOCINE DERIVATIVES AS STAT3 AND STAT6 MODULATORS FOR THE TREATMENT OF CANCER AND INFLAMMATORY CONDITIONS” (Recludix Pharma, Inc., priority 2022, published 2025)
pIC50: −log10 of the molar value.

Assays:
[1] = target: T1, Recombinant STAT3 protein (STAT3(G127-I722)) (Homo sapiens, UniProt P40763); test: STAT3 Fluorescence Polarization (FP) Assay; format: binding; conditions: STAT3(G127-I722) 25 nM, probe 5-FAM-GpYLPQTV-NH2 2 nM, 45-minute incubation
T1 construct: Recombinant STAT3 protein (STAT3(G127-I722))
Method in brief: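 STAT3(G127-I722), 25 nM, was mixed with 2 nM 5-FAM-GpYLPQTV-NH2 probe in HEPES pH 7.4 buffer with 1% DMSO and serially diluted compound. FP (mP) was read after 45 min at room temperature. IC50 came from nonlinear regression.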

[2] = target: T2, Recombinant STAT6 protein (STAT6(W123-T658)) (Homo sapiens, UniProt P42226); test: STAT6 Fluorescence Polarization (FP) Assay; format: binding; conditions: STAT6(W123-T658) 250 nM, probe 5-FAM-ApYKPFQDLI-NH2 2 nM, 45-minute incubation
T2 construct: Recombinant STAT6 protein (STAT6(W123-T658))
T2 sequence (P42226 123-658): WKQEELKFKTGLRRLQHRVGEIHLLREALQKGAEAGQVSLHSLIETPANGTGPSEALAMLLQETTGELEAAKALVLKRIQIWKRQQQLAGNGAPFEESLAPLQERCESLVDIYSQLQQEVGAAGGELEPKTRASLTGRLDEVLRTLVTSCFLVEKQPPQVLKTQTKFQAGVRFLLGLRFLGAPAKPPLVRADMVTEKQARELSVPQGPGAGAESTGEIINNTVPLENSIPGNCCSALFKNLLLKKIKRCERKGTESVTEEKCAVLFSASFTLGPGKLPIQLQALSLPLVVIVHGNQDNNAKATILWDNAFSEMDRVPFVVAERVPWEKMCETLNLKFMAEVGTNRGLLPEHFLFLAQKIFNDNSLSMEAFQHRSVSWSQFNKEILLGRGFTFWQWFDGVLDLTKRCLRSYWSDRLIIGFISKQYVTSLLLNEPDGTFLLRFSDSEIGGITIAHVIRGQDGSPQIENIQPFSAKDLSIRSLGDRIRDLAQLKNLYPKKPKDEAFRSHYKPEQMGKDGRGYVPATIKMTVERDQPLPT
Method in brief: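 Displacement of a fluorescent phosphotyrosine peptide (5-FAM-ApYKPFQDLI-NH2, 2 nM) from STAT6(W123-T658) (250 nM), 1% DMSO, pH 7.4 HEPES buffer. After 45 min at room temperature, polarization (mP) was plotted versus log compound concentration and fitted by nonlinear regression to give IC50.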

T1 sequence (P40763 127-722): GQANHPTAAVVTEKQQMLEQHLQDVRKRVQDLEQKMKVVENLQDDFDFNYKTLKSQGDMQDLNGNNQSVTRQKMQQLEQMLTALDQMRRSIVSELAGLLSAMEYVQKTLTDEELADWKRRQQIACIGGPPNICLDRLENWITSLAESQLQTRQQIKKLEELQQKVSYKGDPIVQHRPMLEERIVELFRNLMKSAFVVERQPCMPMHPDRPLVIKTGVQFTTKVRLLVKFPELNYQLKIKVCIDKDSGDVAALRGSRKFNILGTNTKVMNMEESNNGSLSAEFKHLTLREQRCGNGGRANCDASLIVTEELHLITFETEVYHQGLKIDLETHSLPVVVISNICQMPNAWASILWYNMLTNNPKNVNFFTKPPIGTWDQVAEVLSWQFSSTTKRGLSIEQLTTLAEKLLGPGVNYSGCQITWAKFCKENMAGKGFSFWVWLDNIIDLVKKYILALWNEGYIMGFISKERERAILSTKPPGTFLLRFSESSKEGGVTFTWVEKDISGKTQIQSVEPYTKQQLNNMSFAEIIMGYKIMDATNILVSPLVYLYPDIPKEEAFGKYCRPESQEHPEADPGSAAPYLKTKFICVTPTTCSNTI

Compound | pIC50 [1] | pIC50 [2]
CC(=O)N1CC[C@H]2CC[C@@H](C(=O)N(Cc3ccccc3)c3ccccc3)N2C(=O)[C@@H](NC(=O)c2cc3cc(C(F)(F)P(=O)(O)O)ccc3[nH]2)C1 [Compound 56, ((2-(((5S,8S,10aR)-3-acetyl-8-(benzyl(phenyl)carbamoyl)-6-oxodecahydropyrrolo[1,2-a][1,5]diazocin-5-yl)carbamoyl)-1H-indol-5-yl)difluoromethyl)phosphonic acid] | 5.00 to 6.00 | 5.52 to 6.52
CC(=O)N1CC[C@H]2CC[C@@H](C(=O)N3CCCc4ccccc43)N2C(=O)[C@@H](NC(=O)c2cc3cc(C(F)(F)P(=O)(O)O)ccc3[nH]2)C1 [Compound 57, ((2-(((5S,8S,10aR)-3-acetyl-6-oxo-8-(1,2,3,4-tetrahydroquinoline-1-carbonyl)decahydropyrrolo[1,2-a][1,5]diazocin-5-yl)carbamoyl)-1H-indol-5-yl)difluoromethyl)phosphonic acid] | 5.00 to 6.00 | 5.52 to 6.52
CC(=O)N1CC[C@H]2CC[C@@H](C(=O)Nc3ccc(-c4ccccc4)cc3)N2C(=O)[C@@H](NC(=O)c2cc3cc(C(F)(F)P(=O)(O)O)ccc3[nH]2)C1 [Compound 58, ((2-(((5S,8S,10aR)-8-([1,1′-biphenyl]-4-ylcarbamoyl)-3-acetyl-6-oxodecahydropyrrolo[1,2-a][1,5]diazocin-5-yl)carbamoyl)-1H-indol-5-yl)difluoromethyl)phosphonic acid] | 6.00 to 7.00 | 5.52 to 6.52
CC(=O)N1CC[C@H]2CC[C@@H](C(=O)N3CC(C#N)C4(C3)C(=O)Nc3ccccc34)N2C(=O)[C@@H](NC(=O)c2cc3cc(C(F)(F)P(=O)(O)O)ccc3s2)C1 (stereo partly drawn) [Compound 61, ((2-(((5S,8S,10aR)-3-acetyl-8-(4′-cyano-2-oxospiro[indoline-3,3′-pyrrolidine]-1′-carbonyl)-6-oxodecahydropyrrolo[1,2-a][1,5]diazocin-5-yl)carbamoyl)benzo[b]thiophen-5-yl)difluoromethyl)phosphonic acid] | 6.00 to 7.00 | 5.52 to 6.52
CC(=O)N1CC[C@H]2CC[C@@H](C(=O)N3CCN(Cc4ccccc4)C(C#N)C3)N2C(=O)[C@@H](NC(=O)c2cc3cc(C(F)(F)P(=O)(O)O)ccc3s2)C1 (stereo partly drawn) [Compound 62, ((2-(((5S,8S,10aR)-3-acetyl-8-(4-benzyl-3-cyanopiperazine-1-carbonyl)-6-oxodecahydropyrrolo[1,2-a][1,5]diazocin-5-yl)carbamoyl)benzo[b]thiophen-5-yl)difluoromethyl)phosphonic acid] | 5.00 to 6.00 | 5.52 to 6.52
CC(=O)N1CC[C@H]2CC[C@@H](C(=O)N3CCN(C4CC4)C(C#N)C3)N2C(=O)[C@@H](NC(=O)c2cc3cc(C(F)(F)P(=O)(O)O)ccc3s2)C1 (stereo partly drawn) [Compound 63, ((2-(((5S,8S,10aR)-3-acetyl-8-(3-cyano-4-cyclopropylpiperazine-1-carbonyl)-6-oxodecahydropyrrolo[1,2-a][1,5]diazocin-5-yl)carbamoyl)benzo[b]thiophen-5-yl)difluoromethyl)phosphonic acid] | 5.00 to 6.00 | 5.52 to 6.52
CC(=O)N1CC[C@H]2CC[C@@H](C(=O)N3CC(C#N)C4(CCC4)C3)N2C(=O)[C@@H](NC(=O)c2cc3cc(C(F)(F)P(=O)(O)O)ccc3s2)C1 (stereo partly drawn) [Compound 64, ((2-(((5S,8S,10aR)-3-acetyl-8-(8-cyano-6-azaspiro[3.4]octane-6-carbonyl)-6-oxodecahydropyrrolo[1,2-a][1,5]diazocin-5-yl)carbamoyl)benzo[b]thiophen-5-yl)difluoromethyl)phosphonic acid] | 5.00 to 6.00 | 5.52 to 6.52
CC(=O)N1CC[C@H]2CC[C@@H](C(=O)Nc3cc(C)c4[nH]ncc4c3)N2C(=O)[C@@H](NC(=O)c2cc3cc(C(F)(F)P(=O)(O)O)ccc3s2)C1 [Compound 67, ((2-(((5S,8S,10aR)-3-acetyl-8-((7-methyl-1H-indazol-5-yl)carbamoyl)-6-oxodecahydropyrrolo[1,2-a][1,5]diazocin-5-yl)carbamoyl)benzo[b]thiophen-5-yl)difluoromethyl)phosphonic acid] | 5.00 to 6.00 | 5.52 to 6.52
CC(=O)N1CC[C@H]2CC[C@@H](C(=O)Nc3ccc4onc(C)c4c3)N2C(=O)[C@@H](NC(=O)c2cc3cc(C(F)(F)P(=O)(O)O)ccc3s2)C1 [Compound 68, ((2-(((5S,8S,10aR)-3-acetyl-8-((3-methylbenzo[d]isoxazol-5-yl)carbamoyl)-6-oxodecahydropyrrolo[1,2-a][1,5]diazocin-5-yl)carbamoyl)benzo[b]thiophen-5-yl)difluoromethyl)phosphonic acid] | 6.00 to 7.00 | 5.52 to 6.52
CC(=O)N1CC[C@H]2CC[C@@H](C(=O)Nc3ccc4nccnc4c3)N2C(=O)[C@@H](NC(=O)c2cc3cc(C(F)(F)P(=O)(O)O)ccc3s2)C1 [Compound 69, ((2-(((5S,8S,10aR)-3-aceytl-6-oxo-8-(quinoxalin-6-ylcarbamoyl)decahydropyrrolo[1,2-a][1,5]diazocin-5-yl)carbamoyl)benzo[b]thiophen-5-yl)difluoromethyl)phosphonic acid] | 5.00 to 6.00 | 5.52 to 6.52
CC(=O)N1CC[C@H]2CC[C@@H](C(=O)Nc3ccc(S(C)(=O)=O)cc3)N2C(=O)[C@@H](NC(=O)c2cc3cc(C(F)(F)P(=O)(O)O)ccc3s2)C1 [Compound 70, ((2-(((5S,8S,10aR)-3-acetyl-8-((4-(methylsulfonyl)phenyl)carbamoyl)-6-oxodecahydropyrrolo[1,2-a][1,5]diazocin-5-yl)carbamoyl)benzo[b]thiophen-5-yl)difluoromethyl)phosphonic acid] | 5.00 to 6.00 | 5.52 to 6.52
CC(=O)N1CC[C@H]2CC[C@@H](C(=O)Nc3ccc(=O)n(C)c3)N2C(=O)[C@@H](NC(=O)c2cc3cc(C(F)(F)P(=O)(O)O)ccc3s2)C1 [Compound 71, ((2-(((5S,8S,10aR)-3-acetyl-8-((1-methyl-6-oxo-1,6-dihydropyridin-3-yl)carbamoyl)-6-oxodecahydropyrrolo[1,2-a][1,5]diazocin-5-yl)carbamoyl)benzo[b]thiophen-5-yl)difluoromethyl)phosphonic acid] | 5.00 to 6.00 | 5.52 to 6.52
CC(=O)N1CC[C@H]2CC[C@@H](C(=O)Nc3ccc4nccn4c3)N2C(=O)[C@@H](NC(=O)c2cc3cc(C(F)(F)P(=O)(O)O)ccc3s2)C1 [Compound 72, ((2-(((5S,8S,10aR)-3-acetyl-8-(imidazo[1,2-a]pyridin-6-ylcarbamoyl)-6-oxodecahydropyrrolo[1,2-a][1,5]diazocin-5-yl)carbamoyl)benzo[b]thiophen-5-yl)difluoromethyl)phosphonic acid] | 5.00 to 6.00 | 5.52 to 6.52
CC(=O)N1CC[C@H]2CC[C@@H](C(=O)Nc3ccc(OCCCN(C)C)cc3)N2C(=O)[C@@H](NC(=O)c2cc3cc(C(F)(F)P(=O)(O)O)ccc3s2)C1 [Compound 73, ((2-(((5S,8S,10aR)-3-acetyl-8-((4-(3-(dimethylamino)propoxy)phenyl)carbamoyl)-6-oxodecahydropyrrolo[1,2-a][1,5]diazocin-5-yl)carbamoyl)benzo[b]thiophen-5-yl)difluoromethyl)phosphonic acid] | 5.00 to 6.00 | 4.52 to 5.52
